Common to all, as to assay: Kinase profiling in a biochemical assay panel (mobility shift assays and ELISA), %-inhibition at 1 μM; selectivity entropy
In general terms: In an ELISA, binding on a coated surface is turned into a signal by an enzyme label.

In assay [1] the target is T1, panel of more than 300 wild-type and mutant kinases (313 kinase panel) (Homo sapiens, UniProt Q8TDC3).
T1 sequence (Q8TDC3 1-778): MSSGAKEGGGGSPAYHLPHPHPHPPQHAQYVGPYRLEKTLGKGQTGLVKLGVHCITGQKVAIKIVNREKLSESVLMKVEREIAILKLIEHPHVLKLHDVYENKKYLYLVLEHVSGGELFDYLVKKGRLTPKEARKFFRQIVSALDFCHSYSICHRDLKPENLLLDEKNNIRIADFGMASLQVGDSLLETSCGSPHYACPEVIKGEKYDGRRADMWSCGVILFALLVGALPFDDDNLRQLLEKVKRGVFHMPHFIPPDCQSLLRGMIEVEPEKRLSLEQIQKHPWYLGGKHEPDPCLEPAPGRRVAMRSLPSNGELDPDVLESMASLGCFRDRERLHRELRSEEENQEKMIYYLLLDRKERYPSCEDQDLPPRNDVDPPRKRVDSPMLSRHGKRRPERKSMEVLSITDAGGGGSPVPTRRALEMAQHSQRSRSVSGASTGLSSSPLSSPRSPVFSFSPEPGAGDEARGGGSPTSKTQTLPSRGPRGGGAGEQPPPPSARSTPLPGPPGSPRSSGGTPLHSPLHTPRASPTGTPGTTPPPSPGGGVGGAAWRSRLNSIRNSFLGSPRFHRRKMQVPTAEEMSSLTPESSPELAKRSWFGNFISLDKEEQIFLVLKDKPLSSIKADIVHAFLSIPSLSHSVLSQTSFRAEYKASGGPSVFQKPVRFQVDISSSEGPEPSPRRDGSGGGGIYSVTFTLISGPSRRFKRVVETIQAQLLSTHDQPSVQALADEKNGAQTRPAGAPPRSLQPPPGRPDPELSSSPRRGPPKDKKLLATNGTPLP
As to conditions: kinase BRSK1; 1 μM compound.

Assay [2] has as its target T2, panel of more than 300 wild-type and mutant kinases (313 kinase panel) (Homo sapiens, UniProt Q9NZJ5).
T2 sequence (Q9NZJ5 30-1116): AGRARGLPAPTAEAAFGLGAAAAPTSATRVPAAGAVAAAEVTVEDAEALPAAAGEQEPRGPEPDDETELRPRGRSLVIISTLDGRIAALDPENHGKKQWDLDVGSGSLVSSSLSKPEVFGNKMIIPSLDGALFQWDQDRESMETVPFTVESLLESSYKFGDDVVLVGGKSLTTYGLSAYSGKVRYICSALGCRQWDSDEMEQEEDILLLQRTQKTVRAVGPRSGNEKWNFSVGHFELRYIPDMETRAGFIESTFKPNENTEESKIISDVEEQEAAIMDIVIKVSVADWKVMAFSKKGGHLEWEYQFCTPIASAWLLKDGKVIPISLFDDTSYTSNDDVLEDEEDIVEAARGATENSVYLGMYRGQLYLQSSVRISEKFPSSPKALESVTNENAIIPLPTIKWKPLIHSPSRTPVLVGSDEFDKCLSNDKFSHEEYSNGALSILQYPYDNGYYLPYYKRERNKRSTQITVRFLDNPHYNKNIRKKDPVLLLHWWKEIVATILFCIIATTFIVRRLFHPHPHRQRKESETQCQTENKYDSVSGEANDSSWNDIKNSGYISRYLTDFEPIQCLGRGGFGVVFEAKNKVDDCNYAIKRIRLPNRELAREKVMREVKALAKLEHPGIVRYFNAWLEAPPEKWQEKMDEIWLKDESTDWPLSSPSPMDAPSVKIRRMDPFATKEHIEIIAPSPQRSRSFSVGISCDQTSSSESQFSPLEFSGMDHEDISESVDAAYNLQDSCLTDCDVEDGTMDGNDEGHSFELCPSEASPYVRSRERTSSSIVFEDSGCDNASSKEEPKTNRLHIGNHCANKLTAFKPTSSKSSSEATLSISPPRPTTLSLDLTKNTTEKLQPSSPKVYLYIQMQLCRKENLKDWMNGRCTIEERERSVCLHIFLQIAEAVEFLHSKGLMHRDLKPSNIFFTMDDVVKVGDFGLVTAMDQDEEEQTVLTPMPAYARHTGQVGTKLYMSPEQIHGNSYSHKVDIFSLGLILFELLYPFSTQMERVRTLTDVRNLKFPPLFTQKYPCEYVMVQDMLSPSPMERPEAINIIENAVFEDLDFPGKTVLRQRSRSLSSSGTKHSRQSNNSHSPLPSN
The settings on record: kinase PEK; 1 μM.

For assay [3], the target named is panel of more than 300 wild-type and mutant kinases (313 kinase panel) (Homo sapiens, UniProt P41279). The settings on record: kinase COT; compound at 1 μM.
Assay [4] concerns the target panel of more than 300 wild-type and mutant kinases (313 kinase panel) (Homo sapiens, UniProt Q13153).
For assay [5], the target named is panel of more than 300 wild-type and mutant kinases (313 kinase panel) (Homo sapiens, UniProt Q8TDX7). As to conditions: kinase NEK7; 1 μM.
Assay [6] deals with T3, panel of more than 300 wild-type and mutant kinases (313 kinase panel) (Homo sapiens, UniProt Q99759).
T3 sequence (Q99759 1-626): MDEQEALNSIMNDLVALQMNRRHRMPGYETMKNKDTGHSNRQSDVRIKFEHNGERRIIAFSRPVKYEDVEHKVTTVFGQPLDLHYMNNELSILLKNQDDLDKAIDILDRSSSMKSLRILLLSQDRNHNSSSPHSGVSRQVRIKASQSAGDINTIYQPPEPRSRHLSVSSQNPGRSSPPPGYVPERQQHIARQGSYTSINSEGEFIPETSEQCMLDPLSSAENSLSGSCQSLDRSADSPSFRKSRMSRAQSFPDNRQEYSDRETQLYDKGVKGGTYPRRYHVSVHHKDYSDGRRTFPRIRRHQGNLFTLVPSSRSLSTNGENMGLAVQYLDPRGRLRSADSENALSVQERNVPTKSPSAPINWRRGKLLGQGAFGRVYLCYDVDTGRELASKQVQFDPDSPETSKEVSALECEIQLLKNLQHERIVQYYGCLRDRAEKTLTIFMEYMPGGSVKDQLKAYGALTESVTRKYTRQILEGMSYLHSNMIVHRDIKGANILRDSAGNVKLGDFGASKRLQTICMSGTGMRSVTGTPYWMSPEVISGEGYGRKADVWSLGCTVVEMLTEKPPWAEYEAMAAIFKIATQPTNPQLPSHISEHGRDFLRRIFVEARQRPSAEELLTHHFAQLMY
As to conditions: kinase MAP3K3; compound at 1 μM.

Sequence of panel of more than 300 wild-type and mutant kinases (313 kinase panel) (Homo sapiens, UniProt P41279) (P41279 whole entry, change not shown): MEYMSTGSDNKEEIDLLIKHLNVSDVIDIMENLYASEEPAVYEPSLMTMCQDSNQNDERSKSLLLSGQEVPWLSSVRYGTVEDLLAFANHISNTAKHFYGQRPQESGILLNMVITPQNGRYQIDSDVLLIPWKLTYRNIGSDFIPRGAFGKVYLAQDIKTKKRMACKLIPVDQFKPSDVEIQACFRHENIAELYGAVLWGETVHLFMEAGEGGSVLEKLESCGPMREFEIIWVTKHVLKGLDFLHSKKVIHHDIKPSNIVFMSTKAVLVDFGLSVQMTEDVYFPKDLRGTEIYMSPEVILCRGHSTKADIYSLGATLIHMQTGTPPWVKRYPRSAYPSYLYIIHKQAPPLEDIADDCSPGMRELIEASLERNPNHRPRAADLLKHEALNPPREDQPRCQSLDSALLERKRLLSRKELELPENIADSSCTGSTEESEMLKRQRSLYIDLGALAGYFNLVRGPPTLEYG

Regarding `N#CC[C@H](C1CCCC1)n1cc(-c2ncnc3[nH]ccc23)cn1` [ruxolitinib], in assay [1], the “%-inhibition, BRSK1” value is reported as -6.38%. Also, the “%-inhibition of PEK” value in assay [2] was -0.459%. For the same molecule, the “%-inhibition of COT” value in assay [3] is listed as -3.66%. The “%-inhibition of PAK1” value in assay [4] (kinase PAK1, 1 μM) was -5.62%. In assay [5], the “%-inhibition of NEK7” value is reported as -1.81%. Besides, in assay [6], the “%-inhibition of MAP3K3” value is 36%.
`CO[C@H]1C[C@@H]2CC[C@@H](C)[C@@](O)(O2)C(=O)C(=O)N2CCCC[C@H]2C(=O)O[C@H]([C@H](C)C[C@@H]2CC[C@@H](OC(=O)C(C)(CO)CO)[C@H](OC)C2)CC(=O)[C@H](C)/C=C(\C)[C@@H](O)[C@@H](OC)C(=O)[C@H](C)C[C@H](C)/C=C/C=C/C=C/1C` [temsirolimus]: the “%-inhibition, BRSK1” value in assay [1] is on record as -14%. In assay [2], the “%-inhibition of PEK” value came to 8%. Also, the “%-inhibition of COT” value in assay [3] is listed as 8%. For the same molecule, in assay [4] (kinase PAK1, 1 μM), the “%-inhibition of PAK1” value is given as -3.8%. Besides, in assay [5], the “%-inhibition of NEK7” value is -8%. In assay [6], the “%-inhibition of MAP3K3” value amounted to 10%.
For `CC(=O)Nc1cccc(-n2c(=O)n(C3CC3)c(=O)c3c(Nc4ccc(I)cc4F)n(C)c(=O)c(C)c32)c1` [trametinib], the “%-inhibition, BRSK1” value in assay [1] was -6%. Besides, in assay [2], the “%-inhibition of PEK” value turned out to be 1.13%. Further, the “%-inhibition of COT” value in assay [3] is on record as 13%. In addition, the “%-inhibition of PAK1” value in assay [4] (1 µM) is -1.35%. Further, in assay [5], the “%-inhibition of NEK7” value is 1.63%. Also, the “%-inhibition of MAP3K3” value in assay [6] is on record as -6.63%.
Take `COc1cc2c(Nc3ccc(Br)cc3F)ncnc2cc1OCC1CCN(C)CC1` [vandetanib]: the “%-inhibition, BRSK1” value in assay [1] is given as -9%. Further, the “%-inhibition of PEK” value in assay [2] turned out to be 4.69%. In addition, the “%-inhibition of COT” value in assay [3] is listed as -2.53%. Further, the “%-inhibition of PAK1” value in assay [4] (kinase PAK1, 1 μM) was -5.28%. Moreover, the “%-inhibition of NEK7” value in assay [5] is given as -6%. Further, in assay [6], the “%-inhibition of MAP3K3” value was 9%.
On to `CCCS(=O)(=O)Nc1ccc(F)c(C(=O)c2c[nH]c3ncc(-c4ccc(Cl)cc4)cc23)c1F` [vemurafenib], for which the “%-inhibition, BRSK1” value in assay [1] is -8%. The “%-inhibition of PEK” value in assay [2] amounted to 11%. The “%-inhibition of COT” value in assay [3] was 4.34%. Further, in assay [4] (kinase PAK1, 1 μM), the “%-inhibition of PAK1” value is listed as -5%. Moreover, the “%-inhibition of NEK7” value in assay [5] is -3.56%. Also, the “%-inhibition of MAP3K3” value in assay [6] is 8%.

Values taken from article PMC3961306, “Comparison of the Cancer Gene Targeting and Biochemical Selectivities of All Targeted Kinase Inhibitors Approved for Clinical Use” (PLoS ONE, 2014).
